Laboratory results taken from patent US20250026778A1 (TIUMBIO CO., LTD., priority 2021, published 2025).
Read-outs that look alike come from different tables or passages of the source.

Target: T1, his-galectin-3 (Homo sapiens, UniProt P17931)
T1 construct: purchased Abcam
Experiment: TR-FRET assay (in vitro galectin-3 binding inhibitory activity test)
Conditions: compound at 20 μM, 60 nM his-galectin-3, 15 nM biotin-ASF
In short: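 Compound is premixed with his-galectin-3 (60 nM final), then biotin-ASF (15 nM), Tb anti-His antibody (2 nM) and streptavidin-d2 (20 nM) are added. After at least 3.5 hours at RT in HEPES/NaCl buffer with Tween 20 and BSA, TR-FRET is read at 615/665 nm. DMSO serves as the uninhibited control, ASF omission as background.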

[1] = Table 2, read-out: % Inhibitory activity (at 20 μM)
[2] = Table 3, found values, read-out: % Inhibitory activity (at 20 μM)
[3] = read-out: % Inhibitory activity (at 20 μM), Table 2

T1 sequence (P17931 whole entry): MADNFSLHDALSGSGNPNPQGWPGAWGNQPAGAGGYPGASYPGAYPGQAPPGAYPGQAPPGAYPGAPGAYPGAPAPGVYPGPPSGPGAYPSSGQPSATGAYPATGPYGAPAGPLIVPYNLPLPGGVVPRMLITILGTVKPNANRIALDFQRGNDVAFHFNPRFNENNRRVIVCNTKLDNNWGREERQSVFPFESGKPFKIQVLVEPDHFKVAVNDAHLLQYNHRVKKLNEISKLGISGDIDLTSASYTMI

inhibition at 20 µM [1]	inhibition at 20 µM [2]	SMILES	inhibition at 20 µM [3]
< 25%	–	O=C(c1cncs1)N1CCC[C@]2(C1)O[C@H](CO)[C@H](O)[C@H](n1cc(-c3cc(F)c(F)c(F)c3)nn1)[C@H]2O [Compound A190, ((2R,3R,4S,5R,6R)-3,5-dihydroxy-2-(hydroxymethyl)-4-(4-(3,4,5-trifluorophenyl)-1H-1,2,3-triazol-1-yl)-1-oxa-8-azaspiro[5.5]undecan-8-yl)(thiazol-5-yl)methanone]	–
< 25%	24%	OC[C@H]1O[C@@]2(CCCN(c3ccccc3)C2)[C@H](O)[C@@H](n2cc(-c3cc(F)c(F)c(F)c3)nn2)[C@H]1O [Compound A191, (2R,3R,4S,5R,6R)-2-(hydroxymethyl)-8-phenyl-4-(4-(3,4,5-trifluorophenyl)-1H-1,2,3-triazol-1-yl)-1-oxa-8-azaspiro[5.5]undecane-3,5-diol]	–
50 to 75%	–	O=C(N[C@@H]1CCO[C@]12O[C@H](CO)[C@H](O)[C@H](n1cc(-c3cc(F)c(F)c(F)c3)nn1)[C@H]2O)c1cccc2scnc12 [Compound A194, N-((4R,5S,7R,8R,9S,10R)-8,10-dihydroxy-7-(hydroxymethyl)-9-(4-(3,4,5-trifluorophenyl)-1H-1,2,3-triazol-1-yl)-1,6-dioxaspiro[4.5]decan-4-yl)benzo[d]thiazole-4-carboxamide]	–
25 to 50%	–	O=C(N[C@@H]1CCO[C@]12O[C@H](CO)[C@H](O)[C@H](n1cc(-c3cc(F)c(F)c(F)c3)nn1)[C@H]2O)c1ccc2c(Cl)cccc2c1 [Compound A195, 5-chloro-N-((4R,5S,7R,8R,9S,10R)-8,10-dihydroxy-7-(hydroxymethyl)-9-(4-(3,4,5-trifluorophenyl)-1H-1,2,3-triazol-1-yl)-1,6-dioxaspiro[4.5]decan-4-yl)-2-naphthamide]	–
50 to 75%	–	O=C(N[C@@H]1CCO[C@]12O[C@H](CO)[C@H](O)[C@H](n1cc(-c3cc(F)c(F)c(F)c3)nn1)[C@H]2O)c1ccc2sccc2c1 [Compound A196, N-((4R,5S,7R,8R,9S,10R)-8,10-dihydroxy-7-(hydroxymethyl)-9-(4-(3,4,5-trifluorophenyl)-1H-1,2,3-triazol-1-yl)-1,6-dioxaspiro[4.5]decan-4-yl)benzo[b]thiophene-5-carboxamide]	–
50 to 75%	–	O=C(N[C@@H]1CCO[C@]12O[C@H](CO)[C@H](O)[C@H](n1cc(-c3cc(F)c(F)c(F)c3)nn1)[C@H]2O)c1nsc2cc(Br)ccc12 [Compound A197, 6-bromo-N-((4R,5S,7R,8R,9S,10R)-8,10-dihydroxy-7-(hydroxymethyl)-9-(4-(3,4,5-trifluorophenyl)-1H-1,2,3-triazol-1-yl)-1,6-dioxaspiro[4.5]decan-4-yl)benzo[d]isothiazole-3-carboxamide]	–
> 75%	–	O=C(N[C@@H]1CCO[C@]12O[C@H](CO)[C@H](O)[C@H](n1cc(-c3cc(F)c(F)c(F)c3)nn1)[C@H]2O)c1cccc2sccc12 [Compound A198, N-((4R,5S,7R,8R,9S,10R)-8,10-dihydroxy-7-(hydroxymethyl)-9-(4-(3,4,5-trifluorophenyl)-1H-1,2,3-triazol-1-yl)-1,6-dioxaspiro[4.5]decan-4-yl)benzo[b]thiophene-4-carboxamide]	–
50 to 75%	63.3%	O=C(N[C@@H]1CCO[C@]12O[C@H](CO)[C@H](O)[C@H](n1cc(-c3cc(F)c(F)c(F)c3)nn1)[C@H]2O)c1cnc2sccn12 [Compound A200, N-((4R,5S,7R,8R,9S,10R)-8,10-dihydroxy-7-(hydroxymethyl)-9-(4-(3,4,5-trifluorophenyl)-1H-1,2,3-triazol-1-yl)-1,6-dioxaspiro[4.5]decan-4-yl)imidazo[2,1-b]thiazole-5-carboxamide]	–

Continued, compound first:

SMILES	inhibition at 20 µM [1]	inhibition at 20 µM [2]	inhibition at 20 µM [3]
O=C(N[C@@H]1CCO[C@]12O[C@H](CO)[C@H](O)[C@H](n1cc(-c3cc(F)c(F)c(F)c3)nn1)[C@H]2O)c1ccc2c(Br)cccc2c1 [Compound A192, 5-bromo-N-((4R,5S,7R,8R,9S,10R)-8,10-dihydroxy-7-(hydroxymethyl)-9-(4-(3,4,5-trifluorophenyl)-1H-1,2,3-triazol-1-yl)-1,6-dioxaspiro[4.5]decan-4-yl)-2-naphthamide]	25 to 50%	–	–
O=C(N[C@@H]1CCO[C@]12O[C@H](CO)[C@H](O)[C@H](n1cc(-c3cc(F)c(F)c(F)c3)nn1)[C@H]2O)c1ccc2ccccc2c1Br [Compound A193, 1-bromo-N-((4R,5S,7R,8R,9S,10R)-8,10-dihydroxy-7-(hydroxymethyl)-9-(4-(3,4,5-trifluorophenyl)-1H-1,2,3-triazol-1-yl)-1,6-dioxaspiro[4.5]decan-4-yl)-2-naphthamide]	50 to 75%	–	–
O=C(N[C@@H]1CCO[C@]12O[C@H](CO)[C@H](O)[C@H](n1cc(-c3cc(F)c(F)c(F)c3)nn1)[C@H]2O)c1noc2cc(Cl)ccc12 [Compound A199, 6-chloro-N-((4R,5S,7R,8R,9S,10R)-8,10-dihydroxy-7-(hydroxymethyl)-9-(4-(3,4,5-trifluorophenyl)-1H-1,2,3-triazol-1-yl)-1,6-dioxaspiro[4.5]decan-4-yl)benzo[d]isoxazole-3-carboxamide]	25 to 50%	–	–
O=C(N[C@@H]1CCO[C@]12O[C@H](CO)[C@H](O)[C@H](n1cc(-c3cc(F)c(F)c(F)c3)nn1)[C@H]2O)c1cc2ccccc2cc1Cl [Compound A201, 3-chloro-N-((4R,5S,7R,8R,9S,10R)-8,10-dihydroxy-7-(hydroxymethyl)-9-(4-(3,4,5-trifluorophenyl)-1H-1,2,3-triazol-1-yl)-1,6-dioxaspiro[4.5]decan-4-yl)-2-naphthamide]	> 75%	–	–
OC[C@H]1O[C@]2(OCC[C@H]2/N=C\c2c(O)ccc3ccccc23)[C@H](O)[C@@H](n2cc(-c3cc(F)c(F)c(F)c3)nn2)[C@H]1O [Compound A202, (4R,5S,7R,8R,9S,10R)-7-(hydroxymethyl)-4-((Z)-((2-hydroxynaphthalen-1-yl)methylene)amino)-9-(4-(3,4,5-trifluorophenyl)-1H-1,2,3-triazol-1-yl)-1,6-dioxaspiro[4.5]decane-8,10-diol]	< 25%	–	–
OC[C@H]1O[C@]2(OCC[C@H]2/N=C\c2ccc3ccccc3c2O)[C@H](O)[C@@H](n2cc(-c3cc(F)c(F)c(F)c3)nn2)[C@H]1O [Compound A203, (4R,5S,7R,8R,9S,10R)-7-(hydroxymethyl)-4-((Z)-((1-hydroxynaphthalen-2-yl)methylene)amino)-9-(4-(3,4,5-trifluorophenyl)-1H-1,2,3-triazol-1-yl)-1,6-dioxaspiro[4.5]decane-8,10-diol]	25 to 50%	–	–
OC[C@H]1O[C@]2(OCC[C@H]2n2cc(-c3ccccc3Cl)nn2)[C@H](O)[C@@H](n2cc(-c3cc(F)c(F)c(F)c3)nn2)[C@H]1O [Compound A204, (4R,5S,7R,8R,9S,10R)-4-(4-(2-chlorophenyl)-1H-1,2,3-triazol-1-yl)-7-(hydroxymethyl)-9-(4-(3,4,5-trifluorophenyl)-1H-1,2,3-triazol-1-yl)-1,6-dioxaspiro[4.5]decane-8,10-diol]	–	–	< 25%
OC[C@H]1O[C@]2(OCC[C@H]2n2cc(-c3cccc(Cl)c3)nn2)[C@H](O)[C@@H](n2cc(-c3cc(F)c(F)c(F)c3)nn2)[C@H]1O [Compound A205, (4R,5S,7R,8R,9S,10R)-4-(4-(3-chlorophenyl)-1H-1,2,3-triazol-1-yl)-7-(hydroxymethyl)-9-(4-(3,4,5-trifluorophenyl)-1H-1,2,3-triazol-1-yl)-1,6-dioxaspiro[4.5]decane-8,10-diol]	–	–	< 25%
